According to PubChem BioAssay (NCI):
Values joined by “and” are separate entries in the source; they are usually repeats but may differ in a detail not shown here. Identical values can stand only once.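 Cells were grown in 96-well plates and exposed to each compound for 48 hours at five concentrations; endpoints were interpolated linearly between bracketing concentrations, or set to the highest concentration if not reached. GI50 marks 50% less growth. The concentration for full growth arrest is given as TGI.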

Tests used:
Test in all cases: NCI tumour cell line growth inhibition, 48 h
CAKI-1 renal = test system: CAKI-1 renal
HCT-15 colon = test system: HCT-15 colon
SNB-19 CNS = test system: SNB-19 CNS
RXF 393 renal = test system: RXF 393 renal
PC-3 prostate = test system: PC-3 prostate
EKVX NSCLC = test system: EKVX NSCLC
COLO 205 colon = test system: COLO 205 colon
786-0 renal = test system: 786-0 renal
RPMI-8226 leukemia = test system: RPMI-8226 leukemia
BT-549 breast = test system: BT-549 breast

SMILES | TGI (CAKI-1 renal) | TGI (HCT-15 colon) | TGI (SNB-19 CNS) | TGI (RXF 393 renal) | TGI (PC-3 prostate) | TGI (EKVX NSCLC) | TGI (COLO 205 colon) | TGI (786-0 renal) | TGI (RPMI-8226 leukemia) | TGI (BT-549 breast) | GI50 (RXF 393 renal) | GI50 (EKVX NSCLC) | GI50 (CAKI-1 renal) | GI50 (HCT-15 colon) | GI50 (RPMI-8226 leukemia) | GI50 (SNB-19 CNS) | GI50 (PC-3 prostate) | GI50 (COLO 205 colon)
COc1cc2c(cc1OC)C1c3ccccc3CCN1CC2 (stereo not drawn) | > 100 µM | > 100 µM | > 100 µM | > 100 µM | > 100 µM | > 100 µM | > 100 µM | > 100 µM |  |  |  |  |  |  |  |  |  | 
COc1cc(C2c3cc4c(cc3OC(NN=C(C)C)C2C)OCO4)cc(OC)c1O (stereo not drawn) | > 100 µM | > 100 µM | > 100 µM | > 100 µM | > 100 µM |  | > 100 µM | > 100 µM | 31.2 µM | > 100 µM |  |  |  |  |  |  |  | 
CCOC(=O)C1=C(C(C)=O)CSC(c2ccccc2)=N1 | > 100 µM | > 100 µM | > 100 µM | > 100 µM |  | > 100 µM | > 100 µM |  | > 100 µM |  |  |  |  |  |  |  |  | 
CC1(C)O[C@@H]2COC(=O)[C@@H]2O1 | > 100 µM | > 100 µM | > 100 µM | > 100 µM | > 100 µM | > 100 µM | > 100 µM | > 100 µM |  | > 100 µM |  |  |  |  |  |  |  | 
C/C(=N/NC(N)=S)c1ccc2ccccc2c1 |  | > 100 µM | > 100 µM | 81.8 µM |  | 37.3 µM | 41.9 µM |  |  |  |  |  |  |  |  |  |  | 
COc1cc(/C=C/C(=O)O)ccc1C(=O)O/C=C/c1ccccc1 |  | > 100 µM | > 100 µM | > 100 µM |  | > 100 µM | > 100 µM |  | > 100 µM |  |  |  |  |  |  |  |  | 
CCN(CC)CCNc1ccc2nnn3c4ccc(OC)cc4c(=O)c1c23 | 27.6 µM | 18.7 µM | 25.9 µM |  |  |  | 20.4 µM | 17.9 µM | 14.9 µM |  |  |  |  |  |  |  |  | 
CSC1CC2C(CC1(C)O)C2(C)C (stereo not drawn) | > 100 µM | > 100 µM | > 100 µM | > 100 µM |  | 92.1 µM and > 100 µM | > 100 µM | > 100 µM | > 100 µM |  | 29.6 µM and > 100 µM | 13.3 µM and > 100 µM |  |  |  |  |  | 
CC(=O)NS(=O)(=O)c1ccc(NC(=O)c2c3ccccc3nc3ccccc23)cc1 | > 100 µM | > 100 µM | > 100 µM |  | > 100 µM | > 100 µM | > 100 µM | > 100 µM | > 100 µM | > 100 µM |  |  |  |  |  |  |  | 
CCCCn1c2c(n(CCCC)c1=S)-c1c(n(CCCC)c(=S)n1CCCC)S[Se][Se]S2 |  | 15.9 µM | > 76.4 µM | 25.4 µM | > 34.2 µM | 24.3 µM | 3.87 µM | > 43.9 µM | > 35.3 µM | 35.5 µM |  |  |  |  |  |  |  | 
CC(C)=C[C@@H]1C[C@H](n2cc(C)c(=O)[nH]c2=O)ON1CCO | > 100 µM | > 100 µM | > 100 µM | > 100 µM | > 100 µM | > 100 µM | > 100 µM | > 100 µM | > 100 µM |  |  |  |  |  |  |  |  | 
COc1ccc(N2C(=O)c3c4c(c5c([nH]c6ncccc65)c3C2=O)CCC(C(C)(C)C)C4)cc1 (stereo not drawn) |  | > 100 µM | > 100 µM | > 100 µM | > 100 µM | > 100 µM | > 100 µM | > 100 µM | > 100 µM | > 100 µM |  |  |  |  |  |  |  | 
O=C1NCCCc2nonc21 | > 100 µM | > 100 µM | > 100 µM | > 100 µM | > 100 µM | > 100 µM | > 100 µM | > 100 µM | > 100 µM |  |  |  |  |  |  |  |  | 
CCC(C(=O)O)c1ccc(OCc2ccccc2)cc1 (stereo not drawn) | > 100 µM |  | > 100 µM | > 100 µM |  | > 100 µM | > 100 µM |  | > 100 µM |  |  |  |  |  |  |  |  | 
Oc1ccc(-c2nnc3sc(-c4ccc(F)cc4)nn23)cc1 | > 100 µM | > 100 µM | > 100 µM | 38.2 µM | > 100 µM | > 100 µM | 34.1 µM |  | > 100 µM |  | 15.6 µM | 70.8 µM | 48.8 µM | > 100 µM | 39 µM | 21.3 µM | > 100 µM | 16.9 µM
O=C(NC(Cc1c[nH]c2ccccc12)C(=O)O)/C(=C/c1ccccc1O)NC(=O)c1ccccc1 (stereo not drawn) | 36.9 µM | > 100 µM | > 100 µM | > 100 µM |  | > 100 µM | > 100 µM | 46.9 µM | > 100 µM | 52.5 µM |  |  |  |  |  |  |  | 
NC(=O)C(=O)N/N=C1/c2ccccc2CC1C1(O)C(=O)Nc2c(Cl)cc(Cl)cc21 (stereo not drawn) | > 100 µM | > 100 µM | > 100 µM | > 100 µM |  | > 100 µM | > 100 µM |  | > 100 µM |  |  |  |  |  |  |  |  | 
